Experiments:
[1] = tested on: extracellular domain of the kit receptor; assay: BIAcore binding to surfaces activated with kit receptor extracellular domain
Description: SDS-PAGE analysis of the fractions from this column confirmed that EBP was co-eluted with the receptor binding activity.

eck receptor (p130^eck) = assay: p130eck autophosphorylation in LIM 2405 cells; assay type: cell-based, human; settings: intact LIM 2405 cells, 10-15 min at 37° C.
Protocol: The LIM 2405 colorectal carcinoma cell line (Whitehead et al. Immunol. and Cell Biol. 70, 227 (1992)) was maintained in RPMI 1640 containing 5% FBS, 1 μg/ml insulin, 10 μg/ml hydrocortisone and 10 μM α-thioglycerol, and subpassaged by trypsination and dilution (1:5) into fresh media. Prior to assay 2.5×10^5 LIM 2405 cells were seeded into 6-well dishes (Falcon #3046) and incubated for 24 hr at 37° C. The media was discarded and replaced with serum-free RPMI 1640 containing 0.03% BSA, 1 μg/ml insulin, 10 μg/ml hydrocortisone and 10 μM α-thioglycerol, then incubated for 12-18 hr. In some experiments the cell cultures were labelled with ^32 P-orthophosphate (2 mCi/ml) in phosphate-free RPMI 1640 (Flow) for 2-3 hr prior to treatment. Growth factor stock solutions were prediluted at varying concentrations into 2.0 ml of serum-free media, then warmed to 37° C. Cell cultures were removed from the incubator, and the supernatant media discarded. Treatments were promptly added and the cell cultures incubated at 37° C. for 10-15 min. The cultures were then removed from the incubator, placed on ice, and the culture supernatant aspirated.
The treated cell cultures were chilled to 0° C. then washed once with ice-cold PBS (GIBCO). The residual PBS was aspirated and the cells were lysed by the addition of 1.0 ml of ice-cold RIPA buffer (10 mM sodium phosphate, pH 7.4, 150 mM sodium chloride, 0.1% sodium dodecyl sulfate, 1% NP-40, 1% deoxycholate, 1% Trasylol, 2 mM EDTA, 50 mM sodium fluoride and 100 mM sodium orthovanadate). After a 10 min incubation the lysates were transferred to 1.5 ml tubes and clarified by centrifugation for 30 min at 10,000×g. The clarified lysate supernatants were transferred to new tubes and immunoprecipitated with 1.0 μg/ml of affinity purified rabbit anti-Eck C-terminal domain antibody for 2 hr at 0° C. Immune complexes were adsorbed to Protein-G Sepharose beads (Pharmacia) at 4° C. for 30 min, washed twice with ice-cold RIPA buffer, once with 0.1M Tris-HCl, pH 8.0, containing 0.5M LiCl, and once with RIPA. The resulting immunoprecipitates were solubilized with SDS-PAGE sample buffer and stored for further analysis.
The anti-eck immunoprecipitates from treated and untreated LIM 2405 cell lysates were resolved on 7.5% polyacrylamide gels as previously described (Boyle et al. Meth. Enzymol. 201, 110 (1991)). […] Immune complexes were detected by chemiluminescent exposure (ECL, Amersham) to Kodak X-OMAT X-ray film at room temperature for 0.5-5 min.
Eck receptor immunoprecipitates from ^32 P-labelled LIM 2405 cells were resolved by SDS-PAGE, and the gel dried directly without fixation. After exposure to X-ray film the labelled eck receptor band was isolated and phosphoamino acid content determined as described (Boyle et al. Meth. Enzymol. 201, 110 (1991))

[2] = tested on: granulation tissue in subcutaneously implanted wound chambers; assay: Rat wound chamber assay (granulation tissue formation); assay type: in vivo
Protocol: Male Sprague-Dawley specific pathogen free rats (300-350 g; Charles River Breeding Laboratories, Inc.) were used for this study. Rats were anesthetized with sodium pentobarbital (50 mg/kg body weight) by intraperitoneal injection. Using aseptic surgical technique, a 3 cm midline incision was made on the dorsal surface of the rat. A single pocket was formed under the panniculus carnosis by blunt dissection on one side of the animal. A 3 cm long×1 cm diameter sterile stainless steel wire mesh cylinder was then inserted subcutaneously. The wound chambers used were similar to those described by Schilling et. al. (Surgery 46, 702-710 (1959)) and utilized by Hunt et. al. (Am. J. Surg. 114, 302-307 (1967)) as wound healing models. The incision was closed with wound clips. The rats survived the operation well with no evidence of postoperative discomfort. Beginning 3 days after wound chamber implantation, the rats were randomly divided into 5 groups. At this time daily injections of 1) 10 μg CHO-derived EBP, 2) 1 μg CHO-derived EBP, 3) 8 μg E. coli derived EBP, 4) 5 μg recombinant platelet derived growth factor (PDGF), or 5) 0.1 ml sterile PBS and 1 mM CHAPS were begun and continued for a total of 9 days. The injections were made directly into the wound chamber through a silicone septum at the outer edge of the chamber. Twelve days after chamber implantation, the rats were sacrificed by CO2 asphyxiation. Immediately after sacrifice, the chambers were removed surgically and carefully opened. The enclosed granulation tissue was then weighed, and stored at -70° C. for future processing.
Granulation tissue samples were thawed and homogenized with a Polytron homogenizer in 2 ml of ice-cold distilled water for approximately 1 minute. Next, 2 ml of ice-cold 10% trichloroacetic acid was added to the homogenate and incubated at 4° C. for 1 hour. The TCA-precipitated samples were centrifuged (500 g, 10 minutes) at 4° C., washed once with 2 ml of ice-cold 5% TCA, and finally washed with 2 ml of ice-cold 95% ethanol containing 50 mM sodium acetate. Samples were defatted twice with 2 ml of ethanol:ether (3:1, v/v) at 20° C. After each defatting procedure, samples were centrifuged (500×g, 10 minutes) and the supernate discarded. The pellet was then dissolved in 1N sodium hydroxide and brought up to a volume of 10 ml.
Total protein was determined by taking an aliquot of the solubilized granulation tissue and assaying the sample according to the method of Bradford (Anal. Biochem. 72, 248-251 (1976)) Bovine serum albumin (Sigma Chemical Co., St. Louis, Mo.) was used for a protein standard curve.
Total DNA content was determined as deoxy-ribose by the colorimetric method of Burton (Biochem. J. 62, 315 (1956)). Briefly, a 1 ml aliquot of the solubilized sample (in 1N NaOH) was neutralized with the addition of 0.5 ml of 2N HCl. A 1 ml aliquot of the neutralized solution was extracted in 10% perchloric acid at 90° C. for 15 minutes. A 1 ml portion of the final extract was added to 2 ml activated diphenylamine (Sigma Chemical, St. Louis, Mo.) reagent and absorbance at 600 nm was measured after overnight incubation at room temperature. Hydrolyzed calf thymus DNA (Sigma) was used to construct the standard curve. The DNA content was measured as a rough index of the number of cells in the wound chamber, with the realization that cell type and cell cycle status also influence DNA content.
Total glycosaminoglycans (GAGs) were determined using chondroitin sulfate as a standard. A spectrophotometric assay for GAGs was run utilizing a change in absorption spectrum of the dye 1,9- dimethyl methylene blue (Farndale et al. Conn. Tiss. Res. 9, 247-248 (1982)).
Total collagen content was determined as hydroxyproline (an index of collagen content) after hydrolysis of the solubilized granulation tissue in 6N HCl at 110° C. for 24 hours. […]

[3] = 5 ug per chamber per day x 9 days, harvest day 12, mean ± SEM
[4] = 5 ug per chamber per day x 9 days, harvest day 12, mean ± SEM, listed as rPDGF

In the case of “rSCF: the kit ligand [reference compound]”, the “binding to BIAcore surfaces activated with the extracellular domain of the kit receptor” value [1] is reported as “could bind”.

“EGF: growth factor used to treat LIM 2405 cells as specificity control [reference compound]” was tested, and the eck receptor phosphorylation (eck receptor (p130^eck)) was “nor does EGF treatment induce eck phosphorylation”.

PDGF [reference compound] was tested, and the DNA [2, 3] was 356 ± 64 µg, the HYDROXY-PROLINE [2, 3] was 478.4 ± 85.9 µg and the “TOTAL GYLCOSAMINO-GLYCANS” value [2, 3] was 725.2 ± 104.4 µg. The “TOTAL PROTEIN” value [2, 3] was 7.46 ± 1.52 mg, the “WET WEIGHT” value [2, 3] was 417.4 ± 81.8 mg and the DNA [2, 4] was “significantly increased”. The “TOTAL GYLCOSAMINO-GLYCANS” value [2, 4] was “significantly increased”, the “TOTAL PROTEIN” value [2, 4] was “significantly increased” and the “WET WEIGHT” value [2, 4] was “significantly increased”. The “increase in hydroxyproline content over control chambers” value ([2]; PDGF treated chambers (5 μg per day)) was 82%.

Reference: patent US5716934A, “Eck receptor ligands” (Amgen Inc., priority 1995, dated 1998)
